Assay results taken from patent US8809306B2, “Combination andolast/glucocorticoids” (Rottapharm S.p.A., priority 2006, dated 2014).

Tests used:
[1] = test system: human B lymphocytes from allergic donors; conditions: cited from earlier work
[2] = test system: T lymphocytes (Th2) production of IL-5; conditions: preliminary in-vivo data, atopic asthmatic patients; cited from earlier work
[3] = test system: airway hyperresponsiveness; conditions: inhalation, 2 to 20 mg, mild-moderate asthmatic patients; AMP, exercise, UNDW, CAH; cited from earlier work
[4] = test system: airway response following specific antigen challenge; conditions: asthmatic patients; cited from earlier work
[5] = test system: eosinophils in the bronchoalveolar lavage (BAL) fluids; test: Sephadex-induced eosinophilia: eosinophil counts in the BAL fluid
[6] = test system: airway hyperresponsiveness induced by Sephadex G100 particles; test: Sephadex G100-induced lung hyperresponsiveness in rats (bronchoconstriction by Ach); conditions: G-100 rats

| Compound | effect on IL-4 dependent IgE synthesis [1] | effect on Th2 production of IL-5 [2] | airway hyperresponsiveness to specific and non-specific bronchostimulation challenges [3] | early and late airway response following specific antigen challenge [4] | counts of eosinophils in the BAL fluid ([5]; Andolast 3 mg/kg, Sephadex control 2.6×10^6) | Protective Effect (%) ([6]; Andolast 3 mg/kg i.m., calculated from Ach ED50) | Ach ED50 ([6]; Andolast 3 mg/kg i.m., dose of Ach i.v. producing 50% response) [mg/kg] | counts of eosinophils in the BAL fluid ([5]; Prednisolone 1 mg/kg, Sephadex control 2.6×10^6, normal rats about 1×10^4) | eosinophilia in the BAL fluids, in words ([5]; Prednisolone 10 mg/kg) | Protective Effect (%) ([6]; Prednisolone 1 mg/kg orally) | Protective Effect (%) ([6]; Prednisolone 10 mg/kg orally) |
| --- | --- | --- | --- | --- | --- | --- | --- | --- | --- | --- | --- |
| O=C(Nc1ccc(-c2nnn[nH]2)cc1)c1ccc(-c2nnn[nH]2)cc1 [Andolast, N-4-(5-tetrazolyl)-phenyl-4-(5-tetrazolyl)-benzamide] | potent inhibitory effect | inhibitory effect | prevents in a dose-dependent fashion | completely prevents | 1.75×10^6 | 33.3 | 0.20 |  |  |  |  |
| C[C@]12C=CC(=O)C=C1CC[C@@H]1[C@@H]2[C@@H](O)C[C@@]2(C)[C@H]1CC[C@]2(O)C(=O)CO [Prednisolone] |  |  |  |  |  |  |  | 2×10^6 | totally suppressed | 11.1 | 88.8 |
